Here are results for 17 molecules from ChEMBL document CHEMBL5442219.

Broadly, the inhibition is the change of the read-out against control, counted positive when it falls.

Holding throughout (conditions): Compound concentration 10 µM
Assay [1] deals with T1, D(4) dopamine receptor (Homo sapiens) (UniProt P21917).
T1 sequence (whole entry): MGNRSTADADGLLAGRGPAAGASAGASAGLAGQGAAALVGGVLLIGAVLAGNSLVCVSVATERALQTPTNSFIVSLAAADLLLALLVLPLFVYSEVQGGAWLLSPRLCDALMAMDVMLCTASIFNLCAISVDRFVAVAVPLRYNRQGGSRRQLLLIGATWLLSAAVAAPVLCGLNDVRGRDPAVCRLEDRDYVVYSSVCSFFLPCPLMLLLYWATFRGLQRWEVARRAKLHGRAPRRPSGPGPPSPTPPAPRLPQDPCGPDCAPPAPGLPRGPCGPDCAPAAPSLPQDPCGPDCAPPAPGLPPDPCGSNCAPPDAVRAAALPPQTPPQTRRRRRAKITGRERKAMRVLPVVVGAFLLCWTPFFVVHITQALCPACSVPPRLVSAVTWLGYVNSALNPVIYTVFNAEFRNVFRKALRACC
Description: PDSP Primary Binding target: DRD4 - Compounds are tested at 10 uM concentration, plate are incubated at room temperature in the dark for 90 minutes. Reaction are stopped by vacuum filtration onto 0.3% polyethyleneimine soaked filter mats using Filtermate harvester. Scintilation cocktail is then melted onto microwave-dried filters on a hot plate and the radio activity is counted in Microbia counter.

Assay [2] concerns the target T2, 5-hydroxytryptamine receptor 2C (Homo sapiens) (UniProt P28335).
T2 sequence (whole entry): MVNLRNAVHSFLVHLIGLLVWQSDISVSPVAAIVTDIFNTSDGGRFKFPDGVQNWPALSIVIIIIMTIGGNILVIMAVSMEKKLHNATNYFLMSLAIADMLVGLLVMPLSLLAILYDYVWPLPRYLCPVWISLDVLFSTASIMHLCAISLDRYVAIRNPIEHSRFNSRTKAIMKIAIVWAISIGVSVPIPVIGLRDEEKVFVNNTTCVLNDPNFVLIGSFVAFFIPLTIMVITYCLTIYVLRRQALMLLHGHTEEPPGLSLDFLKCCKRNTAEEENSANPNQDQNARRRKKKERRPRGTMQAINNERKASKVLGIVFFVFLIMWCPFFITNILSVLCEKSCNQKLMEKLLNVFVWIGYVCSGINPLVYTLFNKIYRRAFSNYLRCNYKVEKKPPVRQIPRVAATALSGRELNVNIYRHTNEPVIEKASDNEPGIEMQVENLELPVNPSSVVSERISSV
Description: PDSP Primary Binding target: HTR2C - Compounds are tested at 10 uM concentration, plate are incubated at room temperature in the dark for 90 minutes. Reaction are stopped by vacuum filtration onto 0.3% polyethyleneimine soaked filter mats using Filtermate harvester. Scintilation cocktail is then melted onto microwave-dried filters on a hot plate and the radio activity is counted in Microbia counter.

Assay [3] addresses D(1A) dopamine receptor (Homo sapiens) (UniProt P21728).
Description: PDSP Primary Binding target: DRD1 - Compounds are tested at 10 uM concentration, plate are incubated at room temperature in the dark for 90 minutes. Reaction are stopped by vacuum filtration onto 0.3% polyethyleneimine soaked filter mats using Filtermate harvester. Scintilation cocktail is then melted onto microwave-dried filters on a hot plate and the radio activity is counted in Microbia counter.
The target of assay [4] is T3, 5-hydroxytryptamine receptor 1A (Homo sapiens) (UniProt P08908).
T3 sequence (whole entry): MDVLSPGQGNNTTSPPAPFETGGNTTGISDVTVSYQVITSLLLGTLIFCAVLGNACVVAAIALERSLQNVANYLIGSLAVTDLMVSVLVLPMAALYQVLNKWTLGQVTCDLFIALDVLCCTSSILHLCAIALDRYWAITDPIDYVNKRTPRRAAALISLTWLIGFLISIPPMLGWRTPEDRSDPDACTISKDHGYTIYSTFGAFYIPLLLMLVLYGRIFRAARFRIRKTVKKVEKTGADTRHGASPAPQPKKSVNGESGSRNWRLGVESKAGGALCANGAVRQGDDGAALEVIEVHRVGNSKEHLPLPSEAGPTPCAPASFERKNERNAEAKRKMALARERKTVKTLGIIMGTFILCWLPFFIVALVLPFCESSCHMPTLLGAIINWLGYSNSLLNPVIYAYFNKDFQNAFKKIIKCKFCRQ
Description: PDSP Primary Binding target: HTR1A - Compounds are tested at 10 uM concentration, plate are incubated at room temperature in the dark for 90 minutes. Reaction are stopped by vacuum filtration onto 0.3% polyethyleneimine soaked filter mats using Filtermate harvester. Scintilation cocktail is then melted onto microwave-dried filters on a hot plate and the radio activity is counted in Microbia counter.

Assay [5] deals with Kappa-type opioid receptor (Homo sapiens) (UniProt P41145).
Sequence of Kappa-type opioid receptor (Homo sapiens) (P41145 whole entry): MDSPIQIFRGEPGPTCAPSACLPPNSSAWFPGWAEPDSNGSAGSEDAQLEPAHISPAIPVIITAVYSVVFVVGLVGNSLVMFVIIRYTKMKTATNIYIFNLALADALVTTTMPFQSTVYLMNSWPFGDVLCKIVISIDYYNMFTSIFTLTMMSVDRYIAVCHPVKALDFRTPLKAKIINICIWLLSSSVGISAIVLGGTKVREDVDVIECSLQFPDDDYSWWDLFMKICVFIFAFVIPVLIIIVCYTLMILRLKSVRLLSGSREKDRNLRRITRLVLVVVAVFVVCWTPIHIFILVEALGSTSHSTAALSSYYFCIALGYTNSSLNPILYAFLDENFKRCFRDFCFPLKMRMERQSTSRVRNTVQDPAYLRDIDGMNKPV
Description: PDSP Primary Binding target: OPRK1 - Compounds are tested at 10 uM concentration, plate are incubated at room temperature in the dark for 90 minutes. Reaction are stopped by vacuum filtration onto 0.3% polyethyleneimine soaked filter mats using Filtermate harvester. Scintilation cocktail is then melted onto microwave-dried filters on a hot plate and the radio activity is counted in Microbia counter.
In assay [6] the target is T4, Alpha-2A adrenergic receptor (Homo sapiens) (UniProt P08913).
T4 sequence (whole entry): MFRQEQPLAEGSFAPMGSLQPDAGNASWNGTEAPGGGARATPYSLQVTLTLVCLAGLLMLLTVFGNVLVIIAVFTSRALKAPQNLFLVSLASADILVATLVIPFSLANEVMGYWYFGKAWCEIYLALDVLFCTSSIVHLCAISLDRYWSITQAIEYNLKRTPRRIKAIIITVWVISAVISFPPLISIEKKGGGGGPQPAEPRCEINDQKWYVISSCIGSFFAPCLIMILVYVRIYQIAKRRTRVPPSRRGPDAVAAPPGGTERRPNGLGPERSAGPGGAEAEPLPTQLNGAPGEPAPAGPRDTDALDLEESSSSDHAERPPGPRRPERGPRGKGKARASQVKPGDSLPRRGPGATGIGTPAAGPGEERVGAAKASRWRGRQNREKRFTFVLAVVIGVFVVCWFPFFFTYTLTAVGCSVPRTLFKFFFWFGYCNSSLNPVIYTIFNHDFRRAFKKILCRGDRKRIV
Description: PDSP Primary Binding target: ADRA2A - Compounds are tested at 10 uM concentration, plate are incubated at room temperature in the dark for 90 minutes. Reaction are stopped by vacuum filtration onto 0.3% polyethyleneimine soaked filter mats using Filtermate harvester. Scintilation cocktail is then melted onto microwave-dried filters on a hot plate and the radio activity is counted in Microbia counter.

Assay [7] has as its target T5, Alpha-1B adrenergic receptor (Homo sapiens) (UniProt P35368).
T5 sequence (whole entry): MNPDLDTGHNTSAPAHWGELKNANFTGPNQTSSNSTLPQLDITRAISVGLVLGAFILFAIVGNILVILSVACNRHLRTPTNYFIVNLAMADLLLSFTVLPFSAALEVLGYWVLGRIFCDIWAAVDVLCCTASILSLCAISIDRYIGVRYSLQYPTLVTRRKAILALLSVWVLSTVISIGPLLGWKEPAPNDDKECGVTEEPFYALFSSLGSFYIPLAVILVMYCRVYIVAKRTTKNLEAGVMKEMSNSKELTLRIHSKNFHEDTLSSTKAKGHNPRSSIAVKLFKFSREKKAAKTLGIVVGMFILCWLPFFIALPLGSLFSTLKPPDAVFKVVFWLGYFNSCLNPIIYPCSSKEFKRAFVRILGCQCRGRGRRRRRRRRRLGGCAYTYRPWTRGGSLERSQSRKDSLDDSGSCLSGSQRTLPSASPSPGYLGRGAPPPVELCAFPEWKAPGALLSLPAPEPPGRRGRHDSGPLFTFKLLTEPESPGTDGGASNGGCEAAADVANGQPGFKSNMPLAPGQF
Description: PDSP Primary Binding target: ADRA1B - Compounds are tested at 10 uM concentration, plate are incubated at room temperature in the dark for 90 minutes. Reaction are stopped by vacuum filtration onto 0.3% polyethyleneimine soaked filter mats using Filtermate harvester. Scintilation cocktail is then melted onto microwave-dried filters on a hot plate and the radio activity is counted in Microbia counter.

Sequence of D(1A) dopamine receptor (Homo sapiens) (P21728 whole entry): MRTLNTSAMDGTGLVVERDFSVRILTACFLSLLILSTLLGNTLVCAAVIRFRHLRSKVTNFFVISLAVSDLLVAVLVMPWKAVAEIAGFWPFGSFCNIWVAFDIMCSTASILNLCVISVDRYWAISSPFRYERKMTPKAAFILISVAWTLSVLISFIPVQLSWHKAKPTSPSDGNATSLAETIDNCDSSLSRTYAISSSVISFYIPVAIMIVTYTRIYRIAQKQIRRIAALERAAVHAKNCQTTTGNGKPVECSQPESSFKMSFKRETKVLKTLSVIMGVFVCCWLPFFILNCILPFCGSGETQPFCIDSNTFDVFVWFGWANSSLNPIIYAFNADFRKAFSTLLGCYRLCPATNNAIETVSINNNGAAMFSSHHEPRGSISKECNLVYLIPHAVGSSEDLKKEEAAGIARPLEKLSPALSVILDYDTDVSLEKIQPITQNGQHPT

`NC[C@H](O)c1ccc(O)c(O)c1`: the inhibition is 46.9% in assay [1]; -4.42% in assay [2]; 2.57% in assay [3]; -9.29% in assay [4]; 0.54% in assay [5]; 61.9% in assay [6]. In addition, the inhibition in assay [7] is 37.9%.
Regarding `COc1ccccc1N1CCN(CCCCNC(=O)c2ccc3ccccc3c2)CC1`, the inhibition in assay [1] was 95.1%; in assay [2] it was 97.9%; in assay [3], 73.4%; in assay [4] it was 108%; in assay [5], 35.6%; in assay [6], 100%. Further, the inhibition in assay [7] was 96.8%.
Regarding `CN(C)S(=O)(=O)c1ccc(NC(=S)N2CCC(C(O)(c3ccccc3)c3ccccc3)CC2)cc1`, the inhibition in assay [1] is 8.69%; in assay [2], 3.54%; in assay [3], 21.9%; in assay [4], 10.5%; in assay [5], 12.3%; in assay [6] it was -9.2%. The inhibition in assay [7] was -3.51%.
`CNc1nc(NCc2ccc(NS(C)(=O)=O)cc2Cl)cc(-c2ccccn2)n1`: the inhibition in assay [1] was 2.1%; in assay [2] it was 55.4%; in assay [3], 7.8%; in assay [4], 0.99%; in assay [5] it was 73.2%; in assay [6] it was 43.2%. In addition, in assay [7], the inhibition was 26.4%.
Consider `Cc1c(P(=S)(c2ccccc2)c2ccccc2)n2ccccc2[n+]1C/C=C/c1ccccc1`, for which the inhibition is 25.8% in assay [1]; 25.7% in assay [2]; 16.3% in assay [3]; 54.3% in assay [4]; 101% in assay [5]; 58.1% in assay [6]. The inhibition in assay [7] is 39.9%.
Consider `CN(C)C(=O)N[C@H]1CC[C@H](CCN2CCN(c3cccc(Cl)c3Cl)CC2)CC1`, for which the inhibition was 103% in assay [1]; 97.3% in assay [2]; 36.3% in assay [3]; 102% in assay [4]; 5.62% in assay [5]; 95% in assay [6]. Further, the inhibition in assay [7] was 83.4%.
Take `Cc1cc(NC(=O)NCCN2CCC(O)(Cc3ccccc3)CC2)c2ccccc2n1`: the inhibition was 21.1% in assay [1]; 92.3% in assay [2]; 10.7% in assay [3]; -6.82% in assay [4]; 31.9% in assay [5]; 82.4% in assay [6]. Besides, in assay [7], the inhibition is 26.1%.
As for `COc1ccc2cc(S(=O)(=O)N[C@H](CC(=O)N[C@H](Cc3ccc(CN4[C@H](C)CCC[C@@H]4C)cc3)C(=O)N(C)C(C)C)c3ccc4c(c3)OCO4)ccc2c1`, the inhibition was 33.2% in assay [1]; 19.7% in assay [2]; 11.7% in assay [3]; -7.48% in assay [4]; 96.7% in assay [5]; 39.4% in assay [6]. In assay [7], the inhibition was 2.74%.
Take `N#Cc1c[nH]c2c(C(=O)N3CCN(CCc4ccc(F)cc4)CC3)cccc12`: the inhibition in assay [1] is 81.9%; in assay [2] it was 58.7%; in assay [3], 27.9%; in assay [4], 21.2%; in assay [5], 7.51%; in assay [6], -0.21%. Also, the inhibition in assay [7] is 36.8%.
`O=C(O)Cn1c(C(=O)Nc2nc(-c3ccccc3Cl)cs2)cc2ccccc21`: the inhibition in assay [1] is -9.74%; in assay [2] it was 12.4%; in assay [3], -2.06%; in assay [4] it was -8.88%; in assay [5], 2.51%; in assay [6], 8.83%. Also, the inhibition in assay [7] was -9.67%.
Turning to `CN1C[C@H](C(=O)N[C@]2(C)O[C@@]3(O)[C@@H]4CCCN4C(=O)[C@H](Cc4ccccc4)N3C2=O)C[C@@H]2c3cccc4[nH]cc(c34)C[C@H]21`, the inhibition in assay [1] is 100%; in assay [2], 103%; in assay [3] it was 36.3%; in assay [4] it was 96.3%; in assay [5], 15.5%; in assay [6], 99.6%. In addition, the inhibition in assay [7] is 93.8%.
As for `Cc1cc(C)c(N)c(C#Cc2cccc(F)c2)n1`, the inhibition in assay [1] is -9.97%; in assay [2], 2.41%; in assay [3], 17.1%; in assay [4], -6.48%; in assay [5], 18.4%; in assay [6], 4.3%. Besides, the inhibition in assay [7] was -8.91%.
For `CCC(=O)NCC[C@@H]1CCc2ccc3c(c21)CCO3`, the inhibition is -3.2% in assay [1]; -6.58% in assay [2]; -1.3% in assay [3]; -7.41% in assay [4]; 14.2% in assay [5]; 18.4% in assay [6]. Further, the inhibition in assay [7] was -0.82%.
As to `Cc1ccccc1N1CCN(S(=O)(=O)C[C@]23CC[C@H](C[C@@H]2NC(=O)[C@@H](N)CCS(C)(=O)=O)C3(C)C)CC1`, the inhibition in assay [1] was -6.27%; in assay [2] it was -4.87%; in assay [3], 7.11%; in assay [5] it was 98.5%; in assay [6], 27.8%; in assay [7] it was -3.68%.
Turning to `NC(=O)[C@@H]1CCCN1C(=O)[C@H](Cc1c[nH]cn1)NC(=O)[C@@H]1CCC(=O)N1`, the inhibition in assay [1] was 18.4%; in assay [2], -0.43%; in assay [3], -1.35%; in assay [5], 6.58%; in assay [6], 12.4%; in assay [7], -3.89%.
For the molecule `CCc1cc2c(cc1CC)CC(NC[C@H](O)c1ccc(O)c3[nH]c(=O)ccc13)C2`, the inhibition in assay [1] is 24.2%; in assay [2], 66.8%; in assay [3], 11.9%; in assay [4], 1.29%; in assay [6], 42.1%; in assay [7], 59%.
As to `CC(C)(C(=O)O)c1ccc(C(O)CCCN2CCC(C(O)(c3ccccc3)c3ccccc3)CC2)cc1` (stereo not given), the inhibition was 19.6% in assay [1]; -8.36% in assay [2]; 28.9% in assay [3]; -5.94% in assay [4]; -4.3% in assay [6]; 2.41% in assay [7].
